Laboratory results published in ChEMBL document CHEMBL5291721, “A preclinical secondary pharmacology resource illuminates target-adverse drug reaction associations of marketed drugs” (Nat Commun, 2023).

Tests used:
Acetylcholinesterase = Acetylcholinesterase (Homo sapiens, UniProt P22303); assay type: functional
[1] = molecular target: T1, Alpha-1A adrenergic receptor (Homo sapiens, UniProt P35348); assay type: functional, cell-based
T1 sequence (P35348 whole entry): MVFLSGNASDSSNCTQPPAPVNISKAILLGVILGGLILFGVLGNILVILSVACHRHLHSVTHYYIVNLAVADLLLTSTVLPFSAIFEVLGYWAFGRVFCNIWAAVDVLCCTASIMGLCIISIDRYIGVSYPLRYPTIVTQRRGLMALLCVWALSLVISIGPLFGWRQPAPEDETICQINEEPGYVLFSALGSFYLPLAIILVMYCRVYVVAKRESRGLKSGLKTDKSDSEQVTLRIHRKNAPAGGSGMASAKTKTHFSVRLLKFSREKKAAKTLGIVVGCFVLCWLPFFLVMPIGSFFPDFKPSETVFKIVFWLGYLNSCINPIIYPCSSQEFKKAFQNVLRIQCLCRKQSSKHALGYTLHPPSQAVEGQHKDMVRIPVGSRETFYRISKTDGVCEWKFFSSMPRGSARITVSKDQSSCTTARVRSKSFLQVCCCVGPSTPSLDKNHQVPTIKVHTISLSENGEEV

[2] = molecular target: T2, Alpha-2A adrenergic receptor (Homo sapiens, UniProt P08913)
T2 sequence (P08913 whole entry): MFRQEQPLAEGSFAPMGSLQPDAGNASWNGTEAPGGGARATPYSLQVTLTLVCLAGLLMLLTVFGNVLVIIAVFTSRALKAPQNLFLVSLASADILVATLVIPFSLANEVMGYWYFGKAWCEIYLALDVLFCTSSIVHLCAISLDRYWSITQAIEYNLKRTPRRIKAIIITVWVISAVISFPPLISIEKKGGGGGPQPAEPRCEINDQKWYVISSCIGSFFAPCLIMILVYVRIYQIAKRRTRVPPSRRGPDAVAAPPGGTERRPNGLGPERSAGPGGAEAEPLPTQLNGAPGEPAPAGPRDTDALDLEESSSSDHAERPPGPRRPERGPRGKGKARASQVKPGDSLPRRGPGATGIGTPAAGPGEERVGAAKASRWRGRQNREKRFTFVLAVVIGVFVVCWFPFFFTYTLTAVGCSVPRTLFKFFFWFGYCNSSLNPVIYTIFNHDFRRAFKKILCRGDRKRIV

D(1A) dopamine receptor = D(1A) dopamine receptor (Homo sapiens, UniProt P21728)
D(3) dopamine receptor = D(3) dopamine receptor (Homo sapiens, UniProt P35462)
Estrogen receptor = molecular target: T3, Estrogen receptor (Homo sapiens, UniProt P03372)
T3 sequence (P03372 whole entry): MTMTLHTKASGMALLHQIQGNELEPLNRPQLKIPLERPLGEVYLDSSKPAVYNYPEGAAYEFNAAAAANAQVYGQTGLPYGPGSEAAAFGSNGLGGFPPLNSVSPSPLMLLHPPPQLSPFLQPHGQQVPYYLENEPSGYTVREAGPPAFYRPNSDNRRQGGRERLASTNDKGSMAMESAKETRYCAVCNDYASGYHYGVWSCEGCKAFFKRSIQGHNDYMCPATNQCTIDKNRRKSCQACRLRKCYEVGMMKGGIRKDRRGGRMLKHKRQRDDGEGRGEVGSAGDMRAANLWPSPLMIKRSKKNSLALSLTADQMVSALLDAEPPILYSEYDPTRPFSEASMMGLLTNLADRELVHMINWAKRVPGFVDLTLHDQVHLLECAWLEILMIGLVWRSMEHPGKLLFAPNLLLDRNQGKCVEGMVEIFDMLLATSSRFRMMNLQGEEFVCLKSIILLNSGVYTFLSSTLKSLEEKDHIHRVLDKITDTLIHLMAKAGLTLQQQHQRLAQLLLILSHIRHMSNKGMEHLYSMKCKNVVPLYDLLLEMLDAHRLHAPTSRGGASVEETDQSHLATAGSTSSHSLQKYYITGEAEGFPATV

[3] = molecular target: 5-hydroxytryptamine receptor 2B (Homo sapiens, UniProt P41595); assay type: functional, cell-based
Mu-type opioid receptor [4] = molecular target: T4, Mu-type opioid receptor (Homo sapiens, UniProt P35372)
[5] = molecular target: Prostaglandin G/H synthase 1 (Homo sapiens, UniProt P23219); assay type: functional
[6] = molecular target: Beta-1 adrenergic receptor (Homo sapiens, UniProt P08588); assay type: functional
Vasopressin V1a receptor = Vasopressin V1a receptor (Homo sapiens, UniProt P37288)
Cannabinoid receptor 1 [7] = molecular target: T5, Cannabinoid receptor 1 (Homo sapiens, UniProt P21554)
[8] = molecular target: Glutamate receptor ionotropic, NMDA 1 (Rattus norvegicus, UniProt P35439)
[9] = molecular target: Kappa-type opioid receptor (Homo sapiens, UniProt P41145)
Thromboxane A2 receptor = molecular target: T6, Thromboxane A2 receptor (Homo sapiens, UniProt P21731)
T6 sequence (P21731 whole entry): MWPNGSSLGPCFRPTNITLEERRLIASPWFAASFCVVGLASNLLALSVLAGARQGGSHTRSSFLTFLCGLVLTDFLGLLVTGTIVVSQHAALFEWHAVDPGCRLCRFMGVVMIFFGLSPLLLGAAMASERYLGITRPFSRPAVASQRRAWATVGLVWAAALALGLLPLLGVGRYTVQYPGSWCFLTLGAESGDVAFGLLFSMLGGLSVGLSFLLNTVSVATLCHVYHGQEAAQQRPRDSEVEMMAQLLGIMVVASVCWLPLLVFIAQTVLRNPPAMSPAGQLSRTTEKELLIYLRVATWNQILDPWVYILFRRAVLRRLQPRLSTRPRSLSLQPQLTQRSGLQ

[10] = molecular target: Sodium-dependent serotonin transporter (Homo sapiens, UniProt P31645)
[11] = molecular target: Vascular endothelial growth factor receptor 2 (Homo sapiens, UniProt P35968); assay type: functional
Vasopressin V2 receptor = Vasopressin V2 receptor (Homo sapiens, UniProt P30518)
[12] = molecular target: Muscarinic acetylcholine receptor M3 (Homo sapiens, UniProt P20309)
Cannabinoid receptor 1 [13] = molecular target: T5, Cannabinoid receptor 1; assay type: functional, cell-based
[14] = molecular target: 5-hydroxytryptamine receptor 2A (Homo sapiens, UniProt P28223); assay type: functional, cell-based
Mu-type opioid receptor [15] = molecular target: T4, Mu-type opioid receptor; assay: biochemical; assay type: functional
Further: assay procedure not described here.

Chain of Kappa-type opioid receptor (P41145 whole entry): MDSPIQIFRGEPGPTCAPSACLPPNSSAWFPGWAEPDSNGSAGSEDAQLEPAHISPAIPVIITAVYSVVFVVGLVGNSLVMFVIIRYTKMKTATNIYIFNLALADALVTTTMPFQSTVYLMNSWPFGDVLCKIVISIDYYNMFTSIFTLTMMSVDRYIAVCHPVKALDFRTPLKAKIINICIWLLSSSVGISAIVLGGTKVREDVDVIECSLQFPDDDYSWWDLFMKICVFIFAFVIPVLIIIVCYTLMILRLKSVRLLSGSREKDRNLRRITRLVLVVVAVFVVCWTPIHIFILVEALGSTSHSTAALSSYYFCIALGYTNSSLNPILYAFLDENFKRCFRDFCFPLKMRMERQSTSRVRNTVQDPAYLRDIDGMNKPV
Chain of Vascular endothelial growth factor receptor 2 (P35968 whole entry): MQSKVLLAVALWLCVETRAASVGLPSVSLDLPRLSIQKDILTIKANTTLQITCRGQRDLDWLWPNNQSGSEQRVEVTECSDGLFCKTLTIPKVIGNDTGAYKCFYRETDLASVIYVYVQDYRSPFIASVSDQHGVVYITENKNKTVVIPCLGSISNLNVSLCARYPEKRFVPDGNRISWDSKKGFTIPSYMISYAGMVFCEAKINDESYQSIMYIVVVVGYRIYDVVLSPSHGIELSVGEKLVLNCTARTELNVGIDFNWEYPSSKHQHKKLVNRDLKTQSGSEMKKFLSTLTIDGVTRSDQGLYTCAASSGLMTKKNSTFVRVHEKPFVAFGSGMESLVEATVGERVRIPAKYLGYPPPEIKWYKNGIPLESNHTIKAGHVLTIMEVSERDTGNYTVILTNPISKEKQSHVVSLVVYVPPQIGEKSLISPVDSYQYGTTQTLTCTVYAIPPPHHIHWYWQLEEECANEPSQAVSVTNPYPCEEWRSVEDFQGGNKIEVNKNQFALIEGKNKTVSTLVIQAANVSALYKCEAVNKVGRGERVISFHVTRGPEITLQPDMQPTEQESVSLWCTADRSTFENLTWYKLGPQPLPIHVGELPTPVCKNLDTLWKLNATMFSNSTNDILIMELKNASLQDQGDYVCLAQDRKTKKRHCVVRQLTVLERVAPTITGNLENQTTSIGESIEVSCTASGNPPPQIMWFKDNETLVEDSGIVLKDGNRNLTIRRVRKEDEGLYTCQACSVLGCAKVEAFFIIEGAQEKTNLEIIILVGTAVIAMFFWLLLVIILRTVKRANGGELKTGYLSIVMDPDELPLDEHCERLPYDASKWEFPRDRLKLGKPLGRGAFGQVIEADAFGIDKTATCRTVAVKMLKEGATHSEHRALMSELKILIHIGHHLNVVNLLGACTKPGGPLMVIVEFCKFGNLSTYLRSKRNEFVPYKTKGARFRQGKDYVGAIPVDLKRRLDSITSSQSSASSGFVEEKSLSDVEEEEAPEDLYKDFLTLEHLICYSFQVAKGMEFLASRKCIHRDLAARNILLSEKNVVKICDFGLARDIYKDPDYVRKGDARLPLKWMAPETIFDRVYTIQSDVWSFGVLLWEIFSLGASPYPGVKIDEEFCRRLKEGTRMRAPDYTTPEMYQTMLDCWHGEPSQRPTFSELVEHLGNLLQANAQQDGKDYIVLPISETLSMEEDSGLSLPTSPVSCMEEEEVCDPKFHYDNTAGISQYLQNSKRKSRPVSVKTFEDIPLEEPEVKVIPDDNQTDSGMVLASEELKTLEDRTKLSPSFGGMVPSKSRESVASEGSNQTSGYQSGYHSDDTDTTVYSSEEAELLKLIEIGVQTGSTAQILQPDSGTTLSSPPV
Chain of Prostaglandin G/H synthase 1 (P23219 whole entry): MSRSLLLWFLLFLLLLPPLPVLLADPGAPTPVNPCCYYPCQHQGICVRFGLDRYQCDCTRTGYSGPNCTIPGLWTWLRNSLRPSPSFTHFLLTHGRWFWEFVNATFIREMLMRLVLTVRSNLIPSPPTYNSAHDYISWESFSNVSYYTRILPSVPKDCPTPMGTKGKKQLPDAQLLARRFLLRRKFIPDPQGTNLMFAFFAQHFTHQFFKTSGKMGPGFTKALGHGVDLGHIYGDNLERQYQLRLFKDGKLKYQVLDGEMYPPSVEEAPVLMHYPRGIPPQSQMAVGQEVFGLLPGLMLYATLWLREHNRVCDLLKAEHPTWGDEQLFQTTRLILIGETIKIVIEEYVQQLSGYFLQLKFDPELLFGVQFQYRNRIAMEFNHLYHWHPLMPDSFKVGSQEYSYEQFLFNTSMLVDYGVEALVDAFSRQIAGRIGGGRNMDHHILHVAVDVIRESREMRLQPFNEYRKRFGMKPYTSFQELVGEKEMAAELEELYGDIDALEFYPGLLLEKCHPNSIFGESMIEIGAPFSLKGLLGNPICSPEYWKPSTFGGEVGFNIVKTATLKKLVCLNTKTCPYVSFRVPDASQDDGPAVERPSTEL
Chain of D(3) dopamine receptor (P35462 whole entry): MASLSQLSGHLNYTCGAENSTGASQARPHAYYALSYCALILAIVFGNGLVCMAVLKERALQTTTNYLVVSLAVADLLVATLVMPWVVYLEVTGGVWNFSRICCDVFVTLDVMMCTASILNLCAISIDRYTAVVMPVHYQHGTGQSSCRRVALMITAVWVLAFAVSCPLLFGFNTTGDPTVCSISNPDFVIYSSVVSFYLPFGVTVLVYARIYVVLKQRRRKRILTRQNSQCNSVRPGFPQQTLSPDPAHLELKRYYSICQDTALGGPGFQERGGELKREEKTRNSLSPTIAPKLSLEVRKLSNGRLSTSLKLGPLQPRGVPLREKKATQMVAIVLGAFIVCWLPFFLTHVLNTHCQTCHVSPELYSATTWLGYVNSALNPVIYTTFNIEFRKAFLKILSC
Chain of Sodium-dependent serotonin transporter (P31645 whole entry): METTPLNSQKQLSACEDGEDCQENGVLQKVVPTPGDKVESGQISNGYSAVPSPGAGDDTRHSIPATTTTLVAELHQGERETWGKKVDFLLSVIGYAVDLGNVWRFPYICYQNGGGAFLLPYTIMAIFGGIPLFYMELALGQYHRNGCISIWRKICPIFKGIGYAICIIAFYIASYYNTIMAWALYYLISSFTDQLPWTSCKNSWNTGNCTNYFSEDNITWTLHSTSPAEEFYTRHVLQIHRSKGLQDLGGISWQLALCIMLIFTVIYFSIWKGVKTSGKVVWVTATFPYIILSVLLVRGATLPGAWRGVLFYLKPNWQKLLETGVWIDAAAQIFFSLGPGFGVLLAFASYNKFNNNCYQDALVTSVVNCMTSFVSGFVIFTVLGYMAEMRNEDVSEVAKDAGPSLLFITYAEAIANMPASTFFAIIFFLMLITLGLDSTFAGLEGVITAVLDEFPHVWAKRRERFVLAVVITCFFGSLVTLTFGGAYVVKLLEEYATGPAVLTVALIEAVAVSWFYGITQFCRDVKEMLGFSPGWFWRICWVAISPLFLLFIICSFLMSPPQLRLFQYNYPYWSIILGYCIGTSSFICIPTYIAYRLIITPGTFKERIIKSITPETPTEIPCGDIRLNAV
Chain of Beta-1 adrenergic receptor (P08588 whole entry): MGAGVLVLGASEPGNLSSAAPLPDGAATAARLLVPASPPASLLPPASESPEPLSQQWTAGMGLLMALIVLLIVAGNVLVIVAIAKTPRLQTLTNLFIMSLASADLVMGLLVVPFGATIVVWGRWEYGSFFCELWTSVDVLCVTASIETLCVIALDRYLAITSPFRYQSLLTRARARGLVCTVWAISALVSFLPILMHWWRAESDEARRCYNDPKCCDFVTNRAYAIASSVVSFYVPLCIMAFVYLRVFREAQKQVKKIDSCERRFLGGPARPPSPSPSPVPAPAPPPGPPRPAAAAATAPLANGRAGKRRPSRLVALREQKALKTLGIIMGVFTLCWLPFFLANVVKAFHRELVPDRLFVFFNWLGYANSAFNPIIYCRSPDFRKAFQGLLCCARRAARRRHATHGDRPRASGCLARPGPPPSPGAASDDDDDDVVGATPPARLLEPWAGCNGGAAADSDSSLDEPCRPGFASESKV
Chain of 5-hydroxytryptamine receptor 2B (P41595 whole entry): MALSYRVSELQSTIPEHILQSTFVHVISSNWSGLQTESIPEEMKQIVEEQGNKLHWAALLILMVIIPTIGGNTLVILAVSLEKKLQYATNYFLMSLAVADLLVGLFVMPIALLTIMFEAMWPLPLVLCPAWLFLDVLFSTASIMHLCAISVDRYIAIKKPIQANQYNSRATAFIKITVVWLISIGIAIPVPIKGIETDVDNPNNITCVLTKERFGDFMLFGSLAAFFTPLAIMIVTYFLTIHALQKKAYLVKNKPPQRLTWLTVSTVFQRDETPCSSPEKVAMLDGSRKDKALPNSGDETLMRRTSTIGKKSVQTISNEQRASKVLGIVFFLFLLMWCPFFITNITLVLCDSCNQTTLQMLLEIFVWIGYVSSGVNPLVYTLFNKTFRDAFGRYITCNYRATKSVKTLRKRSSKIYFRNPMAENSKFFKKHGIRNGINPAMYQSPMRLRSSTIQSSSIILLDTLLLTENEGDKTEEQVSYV
Chain of Acetylcholinesterase (P22303 whole entry): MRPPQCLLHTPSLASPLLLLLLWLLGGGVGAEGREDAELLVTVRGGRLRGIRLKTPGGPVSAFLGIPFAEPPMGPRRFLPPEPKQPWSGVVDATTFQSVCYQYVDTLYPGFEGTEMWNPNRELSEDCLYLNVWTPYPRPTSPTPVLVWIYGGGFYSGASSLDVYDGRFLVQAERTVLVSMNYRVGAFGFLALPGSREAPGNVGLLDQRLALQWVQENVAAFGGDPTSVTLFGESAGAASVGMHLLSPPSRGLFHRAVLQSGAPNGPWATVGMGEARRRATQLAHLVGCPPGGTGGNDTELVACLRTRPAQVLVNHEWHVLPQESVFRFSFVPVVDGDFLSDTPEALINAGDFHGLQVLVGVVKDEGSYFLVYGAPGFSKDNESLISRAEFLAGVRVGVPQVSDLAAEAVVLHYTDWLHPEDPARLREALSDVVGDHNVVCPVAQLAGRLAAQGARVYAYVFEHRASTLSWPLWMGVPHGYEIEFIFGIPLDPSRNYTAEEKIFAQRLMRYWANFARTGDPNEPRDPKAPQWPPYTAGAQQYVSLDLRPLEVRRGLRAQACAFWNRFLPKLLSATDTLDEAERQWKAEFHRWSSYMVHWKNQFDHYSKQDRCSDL

SMILES | AC50 (Acetylcholinesterase) [µM] | AC50 [1] [µM] | AC50 [2] [µM] | AC50 (D(1A) dopamine receptor) [µM] | AC50 (D(3) dopamine receptor) [µM] | AC50 (Estrogen receptor) [µM] | AC50 [3] [µM] | AC50 (Mu-type opioid receptor [4]) [µM] | AC50 [5] [µM] | AC50 [6] [µM] | AC50 (Vasopressin V1a receptor) [µM] | AC50 [8] [µM] | AC50 [9] [µM] | AC50 [10] [µM] | AC50 [11] [µM] | further results
C(=N\NC1=NCCN1)/c1c2ccccc2c(/C=N/NC2=NCCN2)c2ccccc12 [BISANTRENE] | 3.88 | > 30 | 11.6 | 5.24 | 5.96 | > 30 | > 30 | 5.36 | > 30 | – | – | – | – | – | – | –
COc1cc(Nc2c(C#N)cnc3cc(OCCCN4CCN(C)CC4)c(OC)cc23)c(Cl)cc1Cl [BOSUTINIB] | 15.6 | – | 7.58 | 4.64 | 3.01 | > 30 | > 30 | 15.3 | > 30 | > 10 | 4.7 | > 10 | 10 | 11 | – | AC50 (Cannabinoid receptor 1 [7]): > 10 µM; AC50 (Thromboxane A2 receptor): > 30 µM
Cc1cc(O)cc(C)c1Cl [CHLOROXYLENOL] | > 30 | – | > 30 | > 30 | > 30 | – | > 30 | > 30 | > 3 | – | – | – | – | – | > 30 | –
O=C1c2ccccc2C(=O)C1C(=O)C(c1ccccc1)c1ccccc1 [DIPHENADIONE] | > 30 | 4.95 | > 30 | > 30 | > 30 | – | > 30 | > 30 | 15.6 | – | – | – | – | – | > 30 | –
O=C1CC[C@@]2(O)[C@H]3Cc4ccc(O)c5c4[C@@]2(CCN3CC2CC2)[C@H]1O5 [NALTREXONE] | > 30 | > 30 | > 30 | > 30 | > 30 | – | > 30 | – | > 30 | – | – | – | – | – | > 30 | –
OCCN1CCN(CCCN2c3ccccc3C=Cc3ccccc32)CC1 [OPIPRAMOL] | > 30 | > 30 | 9.6 | 1.29 | 0.42 | > 30 | > 30 | 19.4 | 27.5 | > 30 | > 30 | > 30 | > 30 | > 30 | – | AC50 (Vasopressin V2 receptor): > 30 µM; AC50 [12]: > 30 µM; AC50 (Cannabinoid receptor 1 [13]): > 30 µM; AC50 [14]: > 30 µM; AC50 (Mu-type opioid receptor [15]): 15 µM
CC(N/C(=N\C#N)Nc1ccncc1)C(C)(C)C (stereo not drawn) [PINACIDIL ANHYDROUS] | > 30 | > 30 | > 30 | > 30 | > 30 | – | > 30 | > 30 | > 30 | – | – | – | – | – | > 30 | –
O=C(NC[C@H]1CN(c2ccc(N3CCOCC3=O)cc2)C(=O)O1)c1ccc(Cl)s1 [RIVAROXABAN] | > 30 | > 30 | > 30 | > 30 | > 30 | > 30 | > 30 | > 30 | > 30 | – | – | > 30 | > 30 | > 30 | – | AC50 [12]: > 30 µM; AC50 [14]: > 30 µM
CS(=O)(=O)c1ccc([C@@H](O)[C@@H](CO)NC(=O)C(Cl)Cl)cc1 [THIAMPHENICOL] | > 30 | > 30 | > 30 | > 30 | > 30 | > 30 | > 30 | > 30 | > 30 | > 30 | > 30 | > 30 | > 30 | – | – | AC50 (Vasopressin V2 receptor): > 30 µM; AC50 (Cannabinoid receptor 1 [13]): > 30 µM; AC50 (Mu-type opioid receptor [15]): > 30 µM; AC50 (Thromboxane A2 receptor): > 30 µM
